Laboratory results published in PubChem BioAssay (NCI).
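48-hour exposure; five concentrations; linearly interpolated endpoints. TGI marks complete inhibition of growth.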

Tests used:
Assay in all cases: NCI anticancer screen, dose series, 48 h
MOLT-4 leukemia = test system: MOLT-4 leukemia
LOX IMVI melanoma = test system: LOX IMVI melanoma
HT29 colon = test system: HT29 colon
SK-OV-3 ovarian = test system: SK-OV-3 ovarian
CAKI-1 renal = test system: CAKI-1 renal
NCI/ADR-RES ovarian = test system: NCI/ADR-RES ovarian
SN12C renal = test system: SN12C renal
SK-MEL-5 melanoma = test system: SK-MEL-5 melanoma
OVCAR-8 ovarian = test system: OVCAR-8 ovarian
U251 CNS = test system: U251 CNS
BT-549 breast = test system: BT-549 breast
HS 578T breast = test system: HS 578T breast
T-47D breast = test system: T-47D breast
MDA-MB-435 = test system: MDA-MB-435
HCT-116 colon = test system: HCT-116 colon
SR leukemia = test system: SR leukemia
SK-MEL-2 melanoma = test system: SK-MEL-2 melanoma
SNB-19 CNS = test system: SNB-19 CNS
M14 melanoma = test system: M14 melanoma
TK-10 renal = test system: TK-10 renal
A498 renal = test system: A498 renal
A549 NSCLC = test system: A549 NSCLC
RXF 393 renal = test system: RXF 393 renal
HOP-62 NSCLC = test system: HOP-62 NSCLC
NCI-H226 lung = test system: NCI-H226 lung
UO-31 renal = test system: UO-31 renal
IGROV1 ovarian = test system: IGROV1 ovarian
OVCAR-4 ovarian = test system: OVCAR-4 ovarian
NCI-H460 lung = test system: NCI-H460 lung
NCI-H522 lung = test system: NCI-H522 lung
SF-295 CNS = test system: SF-295 CNS
KM12 colon = test system: KM12 colon
OVCAR-5 ovarian = test system: OVCAR-5 ovarian
786-0 renal = test system: 786-0 renal
K-562 leukemia = test system: K-562 leukemia
SW-620 colon = test system: SW-620 colon
MDA-N = test system: MDA-N
MCF7 breast = test system: MCF7 breast
OVCAR-3 ovarian = test system: OVCAR-3 ovarian
CCRF-CEM leukemia = test system: CCRF-CEM leukemia
SK-MEL-28 melanoma = test system: SK-MEL-28 melanoma
HCC-2998 colon = test system: HCC-2998 colon
UACC-257 melanoma = test system: UACC-257 melanoma
HCT-15 colon = test system: HCT-15 colon
MDA-MB-231 breast = test system: MDA-MB-231 breast
DU-145 prostate = test system: DU-145 prostate
EKVX NSCLC = test system: EKVX NSCLC
UACC-62 melanoma = test system: UACC-62 melanoma
COLO 205 colon = test system: COLO 205 colon
ACHN renal = test system: ACHN renal
RPMI-8226 leukemia = test system: RPMI-8226 leukemia
SF-268 CNS = test system: SF-268 CNS
MALME-3M melanoma = test system: MALME-3M melanoma
PC-3 prostate = test system: PC-3 prostate

Measured: TGI

O=C1c2cc(Cl)ccc2NC(=NCCCl)C2CSCN12 (centres undefined)
> 100 µM: all assays above
